Here are results for 1 compound from patent US20210330760A1, “METHODS AND MATERIALS FOR TREATING OSTEOARTHRITIS” (University of Pittsburgh - Of the Commonwealth System of …, priority 2020, published 2021).

“Also recorded” adds a separate entry of the source.

Holding throughout (assay type): in vivo
Conditions in all cases: aged male mice (21-24 months), daily subcutaneous BAPN for 4 weeks, vs saline

Experiment [1] concerns medial tibial cartilage of aged male C57/BL6 mice. As to the kind of experiment: BAPN daily injection in aged mice, cartilage histology (OARSI score). How it is done:
(§1) Aged male C57/BL6 mice (21-24 months; body mass) received daily subcutaneous injections of either saline, as a control, or BAPN (290 μg/μ1 in saline) for 4 weeks every day. Volume of the injection (40-80 μl) was determined based on mice body mass (m) with following protocol: 40 μl (18.45 g≤m≤23.73 g), 50 μl (23.73 g≤m≤29.00 g), 60 ul (29.00 g≤m≤34.27 g), 70 μl (34.27 g≤m≤39.55 g), 80 μl (39.55 g≤m≤44.82 g). Mice were weighed every other day beginning on day 0 and ending on day 28 to ensure proper dosage of BAPN.
Mice knee joints and human cartilage samples were fixed in 4% paraformaldehyde overnight at 4° C., and decalcified in 20% ethylene diamine tetra acetic acid solution for 10 days. Decalcified paraffin sections (5 μm thickness) were prepared from central region of the mice knee joints in the frontal plane in accordance with the OARSI recommendation (Glasson, et al., Osteoarthritis Cartilage 18 Suppl 3, S17-23 (2010)). Decalcified paraffin sections from human cartilage specimen were also prepared. […] The OARSI scoring system, consisting of six grades and four stages on a scale from 0 (normal) to 24 (severe cartilage lesion), was used for semi-quantitative evaluation of cartilage lesion severity (Pritzker, et al., Osteoarthritis Cartilage 14, 13-29 (2006)). The most severe score was evaluated as the maximum OARSI score. […]

Another experiment has as its system α-Klotho. As to the kind of experiment: BAPN daily injection in aged mice, α-Klotho immunofluorescence in chondrocytes. How it is done: as §1
Immunofluorescence analysis for tissue section and/or cell-seeded pAAm gel was performed to determine the signal intensity of type II collagen, α-Klotho, Lamin A/C, and Lamin B2 in accordance with established protocol (Sahu, et al., 2018, supra). Briefly, after a triple wash by PBS, cells were permeabilized with 0.1% triton-X (Fluka 93420) for 15 minutes, followed by a one-hour blocking step using 0.1% triton-X with 3% Bovine Serum Albumin (BSA, Sigma A7906) in PBS. The cells were then incubated with primary antibodies for overnight at 4° C. A similar process was followed for the decalcified tissue paraffin. […]
Slides were imaged using a Zeiss Observer Z1 semi-confocal microscope. […] All images for quantitative analysis in a given experiment were taken under the same imaging conditions. Fluorescence intensity was quantified using Image J

The subject of experiment [2] is chondrocyte nuclear morphology. As to the kind of experiment: BAPN daily injection in aged mice, chondrocyte nuclear morphology (CellProfiler, PCA). How it is done:
as §1
DAPI and F-actin images were obtained at 63× and 20× magnification using a Zeiss Observer Z1 semi-confocal microscope, respectively. Afterwards, image processing and morphome feature extraction were performed using CellProfiler software (v4.0, The Broad Institute) (Carpenter et al., Genome Biol 7, R100 (2006)). Fifty-three shape features of cell and nuclei were determined using the “identify primary objects” followed by the “measure object size shape” and “export to spread sheet” module. Principal Component Analysis (PCA) was performed for the data reduction identifying the principal components (PCs) that represent the differences in the cellular and nuclear morphology. To determine variables of cellular and nuclear shape contributing to PCs, loading matrix, a correlation between the original variable and PCs, were extracted.

Consider `N#CCCN` [BAPN, β-aminopropionitrile], for which the “cartilage integrity (OARSI score)” value in experiment [1] is “improves cartilage integrity”. Further, the “α-Klotho expression in chondrocytes” value with α-Klotho is given as “significantly increased α-Klotho levels; also recorded: increased α-Klotho expression; also recorded: improves α-Klotho expression”. Also, the “nuclear eccentricity of chondrocytes” value in experiment [2] was “decreased nuclear eccentricity; also recorded: decreases nuclear eccentricity towards young level”.
